# How the values were obtained:
# [1] = test system: SF-268; assay: Cytotoxicity against human SF268 cells assessed as growth inhibition after 48 hrs by sulforhodamine B assay; type: functional; details: SF-268, 48 h; for CC50: read-out: LC50 (the source's name)
# [2] = test system: MDA-MB-435; assay: Cytotoxicity against human MDA-MB-435 cells assessed as growth inhibition after 48 hrs by sulforhodamine B assay; type: functional; details: MDA-MB-435, 48 h
# [3] = test system: MDA-MB-231; assay: Cytotoxicity against human MDA-MB-231 cells assessed as growth inhibition after 48 hrs by sulforhodamine B assay; type: functional; details: MDA-MB-231, 48 h
# [4] = test system: T47D; assay: Cytotoxicity against human T47D cells assessed as growth inhibition after 48 hrs by sulforhodamine B assay; type: functional
# [5] = test system: MDA-MB-231; assay: Cytotoxicity against human MDA-MB-231 cells assessed as growth inhibition after 48 hrs by MTT assay; type: functional, cell-based; details: MDA-MB-231, 48 h
# [6] = test system: OVCAR-4; assay: Cytotoxicity against human OVCAR4 cells assessed as cell growth at 0.01 uM after 48 hrs by sulforhodamine B assay relative to control; type: functional; details: OVCAR-4, 48 h, read-out: Activity
# [7] = test system: KM12; assay: Cytotoxicity against human KM12 cells assessed as cell growth at 0.01 uM after 48 hrs by sulforhodamine B assay relative to control; type: functional; details: KM12, 48 h, read-out: Activity
# [8] = test system: COLO 205; assay: Cytotoxicity against human COLO205 cells assessed as cell growth at 0.01 uM after 48 hrs by sulforhodamine B assay relative to control; type: functional; details: COLO 205, 48 h, read-out: Activity
# [9] = test system: NCI-H23; assay: Cytotoxicity against human NCI-H23 cells assessed as cell growth at 0.01 uM after 48 hrs by sulforhodamine B assay relative to control; type: functional; details: NCI-H23, 48 h, read-out: Activity
# [10] = test system: HL-60(TB); assay: Cytotoxicity against human HL-60(TB) cells assessed as cell growth at 0.01 uM after 48 hrs by sulforhodamine B assay relative to control; type: functional; details: HL-60, 48 h, read-out: Activity
# [11] = test system: TK-10; assay: Cytotoxicity against human TK10 cells assessed as cell growth at 0.01 uM after 48 hrs by sulforhodamine B assay relative to control; type: functional; details: TK-10, 48 h, read-out: Activity
# [12] = test system: MDA-MB-231; assay: Cytotoxicity against human MDA-MB-231 cells assessed as cell growth at 0.01 uM after 48 hrs by sulforhodamine B assay relative to control; type: functional; details: MDA-MB-231, 48 h, read-out: Activity
# [13] = test system: HOP-62; assay: Cytotoxicity against human HOP62 cells assessed as cell growth at 0.1 uM after 48 hrs by sulforhodamine B assay relative to control; type: functional; details: HOP-62, 48 h, read-out: Activity
# [14] = test system: UACC-257; assay: Cytotoxicity against human UACC257 cells assessed as cell growth at 0.1 uM after 48 hrs by sulforhodamine B assay relative to control; type: functional; details: UACC-257, 48 h, read-out: Activity
# [15] = test system: T47D; assay: Cytotoxicity against human T47D cells assessed as cell growth at 0.1 uM after 48 hrs by sulforhodamine B assay relative to control; type: functional; details: read-out: Activity
# [16] = test system: MDA-MB-468; assay: Cytotoxicity against human MDA-MB-468 cells assessed as cell growth at 0.1 uM after 48 hrs by sulforhodamine B assay relative to control; type: functional; details: MDA-MB-468, 48 h, read-out: Activity
# [17] = test system: A549; assay: Cytotoxicity against human A549/ATCC cells assessed as cell growth at 1 uM after 48 hrs by sulforhodamine B assay relative to control; type: functional; details: A549, 48 h, read-out: Activity
# [18] = test system: NCI-H460; assay: Cytotoxicity against human NCI-H460 cells assessed as cell growth at 1 uM after 48 hrs by sulforhodamine B assay relative to control; type: functional; details: NCI-H460, 48 h, read-out: Activity
# [19] = test system: COLO 205; assay: Cytotoxicity against human COLO205 cells assessed as cell growth at 1 uM after 48 hrs by sulforhodamine B assay relative to control; type: functional; details: COLO 205, 48 h, read-out: Activity
# [20] = test system: SW-620; assay: Cytotoxicity against human SW620 cells assessed as cell growth at 1 uM after 48 hrs by sulforhodamine B assay relative to control; type: functional; details: SW-620, 48 h, read-out: Activity
# [21] = test system: SF-268; assay: Cytotoxicity against human SF268 cells assessed as cell growth at 1 uM after 48 hrs by sulforhodamine B assay relative to control; type: functional; details: SF-268, 48 h, read-out: Activity
# [22] = test system: OVCAR-4; assay: Cytotoxicity against human OVCAR4 cells assessed as cell growth at 1 uM after 48 hrs by sulforhodamine B assay relative to control; type: functional; details: OVCAR-4, 48 h, read-out: Activity
# [23] = test system: ACHN; assay: Cytotoxicity against human ACHN cells assessed as cell growth at 1 uM after 48 hrs by sulforhodamine B assay relative to control; type: functional; details: read-out: Activity
# [24] = test system: MDA-MB-231; assay: Cytotoxicity against human MDA-MB-231 cells assessed as cell growth at 1 uM after 48 hrs by sulforhodamine B assay relative to control; type: functional; details: MDA-MB-231, 48 h, read-out: Activity
# [25] = test system: SF-539; assay: Cytotoxicity against human SF539 cells assessed as cell growth at 10 uM after 48 hrs by sulforhodamine B assay relative to control; type: functional; details: SF-539, 48 h, read-out: Activity
# [26] = test system: SK-OV-3; assay: Cytotoxicity against human SKOV3 cells assessed as cell growth at 10 uM after 48 hrs by sulforhodamine B assay relative to control; type: functional; details: SK-OV-3, 48 h, read-out: Activity
# [27] = test system: A549; assay: Cytotoxicity against human A549/ATCC cells assessed as cell growth at 100 uM after 48 hrs by sulforhodamine B assay relative to control; type: functional; details: A549, 48 h, read-out: Activity
# [28] = test system: NCI-H460; assay: Cytotoxicity against human NCI-H460 cells assessed as cell growth at 100 uM after 48 hrs by sulforhodamine B assay relative to control; type: functional; details: NCI-H460, 48 h, read-out: Activity
# [29] = test system: HCT-116; assay: Cytotoxicity against human HCT116 cells assessed as cell growth at 100 uM after 48 hrs by sulforhodamine B assay relative to control; type: functional; details: HCT-116, 48 h, read-out: Activity
# [30] = test system: SNB-19; assay: Cytotoxicity against human SNB19 cells assessed as cell growth at 100 uM after 48 hrs by sulforhodamine B assay relative to control; type: functional; details: SNB-19, 48 h, read-out: Activity
# [31] = test system: Malme-3M; assay: Cytotoxicity against human MALME-3M cells assessed as cell growth at 100 uM after 48 hrs by sulforhodamine B assay relative to control; type: functional; details: read-out: Activity
# [32] = test system: OVCAR-3; assay: Cytotoxicity against human OVCAR3 cells assessed as cell growth at 100 uM after 48 hrs by sulforhodamine B assay relative to control; type: functional; details: OVCAR-3, 48 h, read-out: Activity
# [33] = test system: OVCAR-5; assay: Cytotoxicity against human OVCAR5 cells assessed as cell growth at 100 uM after 48 hrs by sulforhodamine B assay relative to control; type: functional; details: OVCAR-5, 48 h, read-out: Activity
# [34] = test system: SK-OV-3; assay: Cytotoxicity against human SKOV3 cells assessed as cell growth at 100 uM after 48 hrs by sulforhodamine B assay relative to control; type: functional; details: SK-OV-3, 48 h, read-out: Activity
# [35] = test system: RXF 393; assay: Cytotoxicity against human RXF393 cells assessed as cell growth at 100 uM after 48 hrs by sulforhodamine B assay relative to control; type: functional; details: RXF 393, 48 h, read-out: Activity
# [36] = test system: MDA-MB-468; assay: Cytotoxicity against human MDA-MB-468 cells assessed as cell growth at 100 uM after 48 hrs by sulforhodamine B assay relative to control; type: functional; details: MDA-MB-468, 48 h, read-out: Activity
compound,measurement,setting,value
COc1cc(-c2cc(/C=C/C(=O)c3ccc(F)c(F)c3)[nH]n2)cc(OC)c1OC,TGI,[1],> 100 µM
same,CC50,[1],> 100 µM
same,LC50,[2],> 100 µM
same,TGI,[2],13.3 µM
same,LC50,[3],> 100 µM
same,TGI,[3],4.58 µM
same,LC50,[4],> 100 µM
same,TGI,[4],27 µM
same,IC50,[5],1.5 µM
same,growth at 0.01 µM,[6],90%
same,growth at 0.01 µM,[7],96%
same,growth at 0.01 µM,[8],101%
same,growth at 0.01 µM,[9],95%
same,growth at 0.01 µM,[10],102%
same,growth at 0.01 µM,[11],82%
same,growth at 0.01 µM,[12],94%
same,growth at 0.1 µM,[13],101%
same,growth at 0.1 µM,[14],92%
same,growth at 0.1 µM,[15],93%
same,growth at 0.1 µM,[16],94%
same,growth at 1 µM,[17],82%
same,growth at 1 µM,[18],103%
same,growth at 1 µM,[19],92%
same,growth at 1 µM,[20],93%
same,growth at 1 µM,[21],83%
same,growth at 1 µM,[22],67%
same,growth at 1 µM,[23],100%
same,growth at 1 µM,[24],74%
same,growth at 10 µM,[25],21%
same,growth at 10 µM,[26],17%
same,growth at 100 µM,[27],-15%
same,growth at 100 µM,[28],-54%
same,growth at 100 µM,[29],-52%
same,growth at 100 µM,[30],22%
same,growth at 100 µM,[31],-31%
same,growth at 100 µM,[32],-64%
same,growth at 100 µM,[33],-24%
same,growth at 100 µM,[34],-5%
same,growth at 100 µM,[35],-61%
same,growth at 100 µM,[36],-26%
COc1ccc(C(=O)/C=C/c2cc(-c3ccc4c(c3)OCO4)n[nH]2)cc1OC,TGI,[1],7.61 µM
same,CC50,[1],40.5 µM
same,LC50,[2],99 µM
same,TGI,[2],10 µM
same,GI50,[3],2.44 µM
same,LC50,[3],31.7 µM
same,TGI,[3],7.39 µM
same,GI50,[4],3.23 µM
same,LC50,[4],> 100 µM
same,TGI,[4],26.1 µM
same,IC50,[5],1.5 µM
same,growth at 0.01 µM,[6],96%
same,growth at 0.01 µM,[7],99%
same,growth at 0.01 µM,[8],102%
same,growth at 0.01 µM,[9],90%
same,growth at 0.01 µM,[10],97%
same,growth at 0.01 µM,[11],91%
same,growth at 0.01 µM,[12],102%
same,growth at 0.1 µM,[13],99%
same,growth at 0.1 µM,[14],95%
same,growth at 0.1 µM,[15],94%
same,growth at 0.1 µM,[16],90%
same,growth at 1 µM,[17],85%
same,growth at 1 µM,[18],87%
same,growth at 1 µM,[19],101%
same,growth at 1 µM,[20],92%
same,growth at 1 µM,[21],92%
same,growth at 1 µM,[22],65%
same,growth at 1 µM,[23],94%
same,growth at 1 µM,[24],90%
same,growth at 10 µM,[25],-47%
same,growth at 10 µM,[26],17%
same,growth at 100 µM,[27],-14%
same,growth at 100 µM,[28],-81%
same,growth at 100 µM,[29],-64%
same,growth at 100 µM,[30],-95%
same,growth at 100 µM,[31],-74%
same,growth at 100 µM,[32],-67%
same,growth at 100 µM,[33],-30%
same,growth at 100 µM,[34],-23%
same,growth at 100 µM,[35],-95%
same,growth at 100 µM,[36],-85%
COc1cc(C(=O)/C=C/c2cc(-c3ccc4c(c3)OCO4)n[nH]2)cc(OC)c1OC,GI50,[1],2.45 µM
same,TGI,[1],7.64 µM
same,CC50,[1],31.2 µM
same,GI50,[2],2.28 µM
same,LC50,[2],22.5 µM
same,TGI,[2],5.8 µM
same,GI50,[3],2.08 µM
same,LC50,[3],23.8 µM
same,TGI,[3],6.23 µM
same,GI50,[4],1.51 µM
same,LC50,[4],19.9 µM
same,TGI,[4],4.63 µM
same,IC50,[5],1.2 µM
same,growth at 0.01 µM,[6],97%
same,growth at 0.01 µM,[7],97%
same,growth at 0.01 µM,[8],100%
same,growth at 0.01 µM,[9],95%
same,growth at 0.01 µM,[10],99%
same,growth at 0.01 µM,[11],93%
same,growth at 0.01 µM,[12],100%
same,growth at 0.1 µM,[13],95%
same,growth at 0.1 µM,[14],97%
same,growth at 0.1 µM,[15],77%
same,growth at 0.1 µM,[16],82%
same,growth at 1 µM,[17],85%
same,growth at 1 µM,[18],90%
same,growth at 1 µM,[19],95%
same,growth at 1 µM,[20],78%
same,growth at 1 µM,[21],89%
same,growth at 1 µM,[22],47%
same,growth at 1 µM,[23],99%
same,growth at 1 µM,[24],83%
same,growth at 10 µM,[25],-75%
same,growth at 10 µM,[26],19%
same,growth at 100 µM,[27],-80%
same,growth at 100 µM,[28],-78%
same,growth at 100 µM,[29],-47%
same,growth at 100 µM,[30],-97%
same,growth at 100 µM,[31],-91%
same,growth at 100 µM,[32],-97%
same,growth at 100 µM,[33],-56%
same,growth at 100 µM,[34],-98%
same,growth at 100 µM,[35],-92%
same,growth at 100 µM,[36],-80%
